Measurements published in patent EP0339504A2, “Human immunodeficiency virus (HIV) env-coded peptide capable of eliciting HIV-inhibiting antibodies in mammals” (priority 1988, dated 1989).

Columns and labels:
guinea pigs = experiment: Immunization of guinea pigs with peptide-carrier protein conjugate; anti-peptide antibodies by ELISA; type: in vivo, guinea pig
Protocol: Peptides were conjugated to either ovalbumin or keyhole limpet hemocyanin prior to immunization. For ELISA studies, human serum albumin (HSA) was used as the carrier protein. Carrier protein (2 mg/ml) was activated with 0.5% glutaraldehyde for 30 to 60 min at room temperature, then an equal volume of the peptide solution (2 mg/ml in dimethylsulfoxide) was added. The reaction took place overnight at 4°C, following which the reaction mixture was dialyzed overnight against deionized water or 0.1 M glycine, pH 7.0 in the case of human serum albumin.
Guinea pigs and rabbits were immunized following standard immunization protocols. Guinea pigs and rabbits were immunized initially with 100 to 200 µg of the peptide-carrier protein conjugate in complete Freund's adjuvant, and boosted using half the amount of peptide-carrier protein conjugate in incomplete Freund's adjuvant every two weeks thereafter. Serum samples were obtained at every other boost.
All of the peptides listed in Table 1 were conjugated to a carrier protein (either keyhole limpet hemocyanin or ovalbumin) and each peptide-carrier protein conjugate was used to immunize two guinea pigs. Guinea pigs were selected as a convenient test animal system. The resultant guinea pig antiserum samples were monitored for anti-peptide reactivity using ELISA procedures. […] A time point of six months was selected for testing the antiviral (i.e, HIV neutralizing and cell fusion-blocking) characteristics of the guinea pig antisera.
Although different levels of antibodies were produced, there was no case where only one animal from the pair produced antibodies.

[1] = test system: CEM cells chronically infected with HIV-1 IIIB; experiment: Cell fusion assay with anti-peptide sera (giant cell count); type: cell-based; settings: 1:10 serum dilution, control sera 50,65
Protocol: Briefly, 5000 CEM cells chronically infected with HIV-1 IIIB or HIV-1 RF were mixed with 75,000 Molt 4 cells in a volume of 100 µl in a 96 well half-area plate. Final dilution of sera in the assay was 1 to 20. Twenty-four hours later giant cells were visually enumerated at a 40x magnification.

[2] = test system: antibodies from human HIV-1 seropositive serum samples; experiment: ELISA detection of binding of human antibodies to immobilized synthetic peptides; settings: wells blocked with diluent 1 hour before use
Protocol: Synthetic peptides were immobilized directly on Immulon®-II microtiter plates using glutaraldehyde. The plates were activated with 2% glutaraldehyde for 2 hrs at room temperature or 0.1% glutaraldehyde for 30 min and rinsed with deionized water. Two conditions of glutaraldehyde treatment were used routinely; the 2% glutaraldehyde was used to ensure adequate binding of the peptide to the plate and the 0.1% glutaraldehyde to avoid alteration of the binding sites. Peptide solutions of 100 µl containing 10 µg/ml in 60 mM bicarbonate buffer, pH 9.6, were added per well and incubated overnight at 4°C. The plates were washed and blocked with PBST (phosphate buffered saline + 0.05% Tween® 10) for 1 hr at 37°C and stored dry at 4°C.
This procedure was used to assure immobilization of the peptide to the microtiter plate. The peptide-HSA conjugate was immobilized on the microtiter plate well using the procedure above, except that glutaraldehyde was not included in the reaction.
Immediately before use, where indicated, the plates were blocked again with 100 µl of diluent (PBST + 5% bovine serum albumin + 20% heat inactivated normal goat serum + 0.1% sodium azide + 0.05% thimerosal) for 30 to 60 min at 37°C. […] The optical density or absorbance of the reaction was determined using a microtiter plate reader. […]

HIV-1 IIIB = experiment: HIV neutralization assay with anti-peptide sera (p24 antigen in Molt 4 culture supernatant); type: cell-based; settings: Molt 4 cells, day six
Protocol: Approximately 500 TCID₅₀ infectious units of HIV-1 IIIB or HIV-1 RF in 25 µl were mixed and incubated with serum dilutions (25 µl) for 30 min at 37°C. Molt 4 cells (4x10⁴) were added in a volume of 100 µl and incubation continued for six days at 37°C. The final dilution of the serum sample was 1 to 20. The total volume of each culture was doubled daily by addition of fresh medium (RPMI + 20% fetal calf serum). On day six, 100 µl samples were taken from the supernatant and tested for the level of viral gag-coded p24 antigen using an antigen capture assay (Du Pont, Wilmington, DE).

Q: With “peptide 1-80: aa number 418 to 432 of HIV-1 IIIB env-coded protein (CRIKQIINMWQKVGK; Surface protein gp120; UniProt P04578 418-432, looked up, fragment)” as the substance, how does the “LIMITING DILUTION” value (guinea pigs; anti-peptide ELISA of guinea pig antiserum, 6 month bleed, dilution at which an absorbance of 0.1 would be obtained, one row per animal) read?
A: 30

Q: What about the “level of anti-peptide antibodies elicited (in words)” value (guinea pigs; by 6 months following the first immunization) of the same substance?
A: elicited very low levels of anti-peptide antibodies

Q: What about the “LIMITING DILUTION” value (guinea pigs; rows marked + : guinea pig antiserum, 2-5 month bleed, dilution giving absorbance 0.1) of the same substance?
A: < 20

Q: And the “FUSION ASSAY (number of giant cells formed)” value ([1]; guinea pig antiserum, 6 month bleed, two counts per cell separated by a comma (no decimal))?
A: 63,66

Q: What about the “FUSION ASSAY (number of giant cells formed)” value ([1]; rows marked + : guinea pig antiserum, 2-5 month bleed, two counts separated by a comma) of the same substance?
A: 54,53

Q: What about the “HIV SEROPOSITIVE SERA Number of Peptide ELISA Positive Sera of 37 Tested” value ([2]; positive = ELISA absorbance greater than 0.2) of the same substance?
A: 14

Q: What about the “HIV SEROPOSITIVE SERA Positive Sera Average Absorbance ± SD” value ([2]; positive = absorbance greater than 0.2) of the same substance?
A: 0.34 ± 0.24

Q: And the “NEUTRALIZATION ACTIVITY (quantity of p24 present in the supernatant)” value (HIV-1 IIIB; guinea pig antiserum, 6 month bleed)?
A: 800 ng/mL

Q: And the “NEUTRALIZATION ACTIVITY (quantity of p24 present in the supernatant)” value (HIV-1 IIIB; rows marked + : guinea pig antiserum, 2-5 month bleed)?
A: >800 ng/mL
